In patent publication US12570602B2, “Selective serotonin receptor modulators and methods of making and using the same” (Park City Bio, LLC, priority 2024, dated 2026):

Experiments:
[1] = target: T1, 5-HT2A receptor (Homo sapiens, UniProt P28223); experiment: Gq activation via Gq/γ1 dissociation BRET, 5-HT2A; assay type: cell-based; conditions: hallucinogenic or non-hallucinogenic plastogenic effect predicted from level of 5-HT2A agonist efficacy
T1 construct: expressed in transfected cells; host or cells: HEK293T
T1 sequence (P28223 whole entry): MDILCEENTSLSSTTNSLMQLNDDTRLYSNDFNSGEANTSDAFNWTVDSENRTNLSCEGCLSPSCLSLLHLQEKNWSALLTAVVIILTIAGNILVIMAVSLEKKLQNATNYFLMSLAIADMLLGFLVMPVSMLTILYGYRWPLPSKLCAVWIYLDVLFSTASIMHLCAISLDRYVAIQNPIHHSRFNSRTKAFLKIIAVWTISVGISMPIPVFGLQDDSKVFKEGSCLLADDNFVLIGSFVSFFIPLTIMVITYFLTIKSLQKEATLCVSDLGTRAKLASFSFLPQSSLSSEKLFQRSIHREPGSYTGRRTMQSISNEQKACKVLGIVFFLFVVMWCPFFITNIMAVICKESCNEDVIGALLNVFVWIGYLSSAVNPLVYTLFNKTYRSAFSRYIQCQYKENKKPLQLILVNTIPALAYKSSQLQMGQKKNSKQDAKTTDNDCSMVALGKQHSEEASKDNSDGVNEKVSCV
Description: (§1) To measure 5-HT2 receptor-mediated Gq activation via Gq/y1 dissociation as measured by Bioluminescence Resonance Energy Transfer (BRET) (McCorvy J D, Wacker D, Wang S, Agegnehu B, Liu J, Lansu K, Tribo A R, Olsen R H J, Che T, Jin J, Roth B L. Structural determinants of 5-HT2B receptor activation and biased agonism. Nat Struct Mol Biol. 2018; 25(9): 787-96), HEK293T cells were sub-cultured in Dulbecco's Modified Eagle Medium (DMEM) supplemented with 10% dialyzed fetal bovine serum (FBS) and were co-transfected in a 1:1:1:1 ratio with Rluc8-fused human Gaq (Gaq-Rluc8), a GFP2-fused to the C-terminus of human Gy1 (Gy1-GFP2), human GI31, and 5-HT2 receptor using TransiT-2020. After at least 18-24 hours, transfected cells were plated in poly-lysine coated 96-well white clear bottom cell culture plates in DMEM containing 1% dialyzed FBS at a density of 25,000-40,000 cells in 200 μL per well and incubated overnight. The following day, medium was decanted, and cells were washed with 60 μL of drug buffer (1×HBSS, 20 mM HEPES, pH 7.4), then 60 μL of drug buffer was added per well. Cells were pre-incubated at in a humidified atmosphere at 37° C. before receiving drug stimulation. […] Substrate addition occurred 15 minutes before reading and utilized 10 μL of the Rluc substrate coelenterazine 400a for Gq dissociation BRET^2 (Prolume/Nanolight, 5 μM final concentration). Plates were read for luminescence at 400 nm and fluorescent GFP2 emission at 510 nm at 1 second per well using a Mithras LB940 multimode microplate reader (e.g. one provided by Berthold). The BRET ratios of fluorescence/luminescence were calculated per well and were plotted as a function of drug concentration using Graphpad Prism 8 (Graphpad Software Inc., San Diego, CA). Data were normalized to % 5-HT stimulation and analyzed using nonlinear regression “log(agonist) vs. response” to yield Emax and EC50 parameter estimates. […]

[2] = target: T2, 5-HT2C receptor (Homo sapiens, UniProt P28335); experiment: Gq activation via Gq/γ1 dissociation BRET, 5-HT2C; assay type: cell-based; conditions: primary signaling for 5-HT2C via Gq-coupled mechanism compared to B-arrestin
T2 construct: expressed in transfected cells; host or cells: HEK293T
T2 sequence (P28335 33-458): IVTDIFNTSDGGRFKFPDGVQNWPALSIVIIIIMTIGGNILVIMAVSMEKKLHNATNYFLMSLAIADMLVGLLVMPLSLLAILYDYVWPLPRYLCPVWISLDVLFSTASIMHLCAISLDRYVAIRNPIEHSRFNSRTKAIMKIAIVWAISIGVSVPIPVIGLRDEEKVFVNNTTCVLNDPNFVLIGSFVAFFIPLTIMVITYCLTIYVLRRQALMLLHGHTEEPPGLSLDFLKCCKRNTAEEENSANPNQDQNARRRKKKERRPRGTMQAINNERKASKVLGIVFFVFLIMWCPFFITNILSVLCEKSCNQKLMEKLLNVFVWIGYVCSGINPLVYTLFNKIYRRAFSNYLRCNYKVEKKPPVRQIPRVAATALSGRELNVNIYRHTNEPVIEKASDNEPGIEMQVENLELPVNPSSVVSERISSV
Description: as §1

SMILES | Hall or N-Hall? [1] | 5-HT2C Gq signaling bias? [2]
CNCC1CC1c1cc(F)ccc1SC (stereo not drawn) | N-Hall | Yes
CNC[C@H]1C[C@@H]1c1cc(F)ccc1OC | N-Hall | Yes
CSc1ccc(F)cc1C1CC1CN(C)C (stereo not drawn) | N-Hall | Yes
